# Experimental data published in US11976083B2, “Inhibitors of peptidylarginine deiminases” (Gilead Sciences, Inc., priority 2020, dated 2024).
# Biological target: T1, human PAD4 (Homo sapiens, UniProt Q9UM07)
# T1 construct: human PAD4 (NM_012387), A2-P663, was PCR amplified; His-SUMO (N, cleaved yes); made in house; host or cells: E. coli BL21(DE3)
# Assay: In vitro PAD4 BAEE biochemical assay
# Conditions: BAEE substrate 3 mM, 5 nM PAD4, 2 mM calcium chloride; geometric mean of multiple experiments
# Outline: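 Ammonia produced by BAEE deimination (3 mM substrate, 2 h, 25 °C) was read as fluorescent isoindole after o-phthalaldehyde/DTT derivatization, ex 405 nm/em 535 nm. Human PAD4 at 5 nM final, 2 mM calcium, pH 7.6 MOPS; compound preincubated 30 min. IC50s, normalized to BB-Cl-Amidine and DMSO controls, were geometric-mean averaged.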
# T1 sequence (Q9UM07 2-663): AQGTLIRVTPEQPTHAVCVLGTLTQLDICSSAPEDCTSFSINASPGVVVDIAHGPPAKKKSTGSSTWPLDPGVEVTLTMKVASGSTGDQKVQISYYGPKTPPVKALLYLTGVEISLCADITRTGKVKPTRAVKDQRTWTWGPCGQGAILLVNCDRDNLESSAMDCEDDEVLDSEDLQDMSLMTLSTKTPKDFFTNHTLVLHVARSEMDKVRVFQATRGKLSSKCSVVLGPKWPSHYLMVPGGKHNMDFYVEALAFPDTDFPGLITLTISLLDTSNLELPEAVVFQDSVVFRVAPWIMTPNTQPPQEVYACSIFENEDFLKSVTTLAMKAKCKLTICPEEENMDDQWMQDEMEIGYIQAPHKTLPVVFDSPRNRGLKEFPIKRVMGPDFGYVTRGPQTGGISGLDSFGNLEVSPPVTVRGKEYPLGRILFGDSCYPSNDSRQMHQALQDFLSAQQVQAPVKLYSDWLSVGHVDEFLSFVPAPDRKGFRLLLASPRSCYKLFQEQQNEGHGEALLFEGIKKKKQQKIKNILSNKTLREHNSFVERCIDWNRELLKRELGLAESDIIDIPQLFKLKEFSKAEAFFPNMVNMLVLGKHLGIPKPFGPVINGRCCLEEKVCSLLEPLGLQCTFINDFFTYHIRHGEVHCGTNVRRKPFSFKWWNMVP
row,IC50,Structure (SMILES)
1,30 nM,"COc1cc(C(=O)N2C[C@H](N)[C@@H]3CC[C@H]2C3)cc2nc(-c3cc4ccc5nc4n3CCCCCc3ccc(F)cc3C(=O)N[C@@H]5C)n(C)c12 [Example 899, (2~{R})-17-[5-[(1~{S},4~{R}, 5~{R})-4-amino-2-azabicyclo [3.2.1]octane-2-carbonyl]-7-methoxy-1-methyl-benzimidazol-2-yl]-7-fluoro-2-methyl-3,16,22-triazatetracyclo [14.5.2.0^{5,10}.0^{19,23}] tricosa-1(22),5(10),6,8,17, 19(23),20-heptaen-4-one]"
2,3320 nM,"COc1cc(C(=O)N2CC[C@@H]3OCCN[C@@H]3C2)cc2nc(-c3cc4ccc5nc4n3C[C@H]3C[C@H]3COCCC(=O)N[C@@H]5C)n(C)c12 (single isomer, unassigned) [Example 246, (3˜{S},5˜{R},12˜{R})-18-[5-[(4˜{a}˜{R},8˜{a}˜{S})-2,3,4,4˜{a},5,7,8,8˜{a}-octahydropyrido[4,3-b][1,4]oxazine-6-carbonyl]-7-methoxy-1-methyl-benzimidazol-2-yl]-12-methyl-7-oxa-1,11,20-triazatetracyclo[11.5.2.0^{3,5}.0^{16,19}]icosa-13(20),14,16(19),17-tetraen-10-one]"
3,505 nM,"COc1cc(C(=O)N2CC[C@@H]3CCN[C@@H]3C2)cc2nc(-c3cc4ccc5nc4n3CCCCCCC(C)(C)C(=O)N[C@@H]5C)n(C)c12 [Example 81, (11~{R})-17-[5-[(3~{a}~{S},7~{a}~{S})-1,2,3,3~{a},4,5,7,7~{a}-octahydropyrrolo[2,3-c]pyridine-6-carbonyl]-7-methoxy-1-methyl-benzimidazol-2-yl]-8,8,11-trimethyl-1,10,19-triazatricyclo[10.5.2.0^{15,18}]nonadeca-12(19),13,15(18),16-tetraen-9-one]"
4,156 nM,"COc1cc(C(=O)N2C[C@H](N)[C@@H]3CC[C@H]2C3)cc2nc(-c3cc4ccc5nc4n3CCCCCc3c(ccc(Cl)c3F)C(=O)N[C@@H]5C)n(C)c12 [Example 898, (2~{R})-17-[5-[(1~{S},4~{R},5~ {R})-4-amino-2-azabicyclo [3.2.1]octane-2-carbonyl]-7-methoxy-1-methyl-benzimidazol-2-yl]-8-chloro-9-fluoro-2-methyl-3,16,22-triazatetracyclo[14.5.2.0^ {5,10}.0^{19,23}]tricosa-1(22),5(10),6,8,17,19(23),20-heptaen-4-one]"
5,110 nM,"COc1cc(C(=O)N2CCC[C@@H](N)C2)cc2nc(-c3cc4ccc5nc4n3CCC/C=C/C[C@](C)(C(F)(F)F)C(=O)N[C@@H]5C)n(C)c12 (single isomer, unassigned) [Example 3, (5˜{E},8˜{S},11˜{R})-17-[5-[(3˜{R})-3-aminopiperidine-1-carbonyl]-7-methoxy-1-methyl-benzimidazol-2-yl]-8,11-dimethyl-8-(trifluoromethyl)-1,10,19-triazatricyclo[10.5.2.0^{15,18}]nonadeca-5,12(19),13,15(18),16-pentaen-9-one]"
6,74 nM,"COc1cc(C(=O)N2CCC[C@@H](N)C2)cc2nc(-c3cc4ccc5nc4n3CCCCCc3cccc(C)c3C(=O)N[C@@H]5C)n(C)c12 [Example 361, (2~{R})-17-[5-[(3~{R})-3-aminopiperidine-1-carbonyl]-7-methoxy-1-methyl-benzimidazol-2-yl]-2,6-dimethyl-3,16,22-triazatetracyclo[14.5.2.0^{5,10}.0^{19,23}] tricosa-1(22),5(10),6,8,17,19(23),20-heptaen-4-one]"
7,31 nM,"C[C@H]1NC(=O)c2ccc(Cl)nc2CCCCCn2c(-c3nc4cc(C(=O)N5C[C@H](N)[C@@H]6CC[C@H]5C6)cc(Cl)c4n3C3CC3)cc3ccc1nc32 [Example 812, (2~{R})-17-[5-[(1~{S},4~{R}, 5~{R})-4-amino-2-azabicyclo [3.2.1]octane-2-carbonyl]-7-chloro-1-cyclopropyl-benzimidazol-2-yl]-8-chloro-2-methyl-3,9,16,22-tetrazatetracyclo[14.5.2.0^ {5,10}.0^{19,23}]tricosa-1(21),5(10),6,8,17,19,22-heptaen-4-one]"
8,108 nM,"COc1cc(C(=O)N2CC[C@@H](OC(F)F)[C@@H](N)C2)cc2nc(-c3cc4ccc5nc4n3CCCCCC[C@@H](OC)C(=O)N[C@@H]5C)n(C)c12 [Example 629, (8~{R},11~{R})-17-[5-[(3~ {S},4~{R})-3-amino-4-(difluoromethoxy)piperidine-1-carbonyl]-7-methoxy-1-methyl-benzimidazol-2-yl]-8-methoxy-11-methyl-1,10,19-triazatricyclo [10.5.2.0^{15,18}]nonadeca-12(19),13,15(18),16-tetraen-9-one]"

# Continued, molecule first:
row,Structure (SMILES),IC50
1,"COc1cc(C(=O)N2[C@H]3CC[C@@H]2[C@H](N)C3)cc2nc(-c3cc4ccc5nc4n3CCCCCN(C)C(=O)N[C@@H]5C)c(C)n12 [Example 210, (10~{R})-16-[7-[(1~{R},2~{R},4~{S})-2-amino-7-azabicyclo[2.2.1]heptane-7-carbonyl]-5-methoxy-3-methyl-imidazo[1,2-a]pyridin-2-yl]-7,10-dimethyl-1,7,9,18-tetrazatricyclo[9.5.2.0^{14,17}]octadeca-11(18),12,14(17),15-tetraen-8-one]",39 nM
2,"C[C@H]1NC(=O)[C@@H]2C[C@H]2CCCC(F)(F)Cn2c(-c3nc4cc(C(=O)N5C[C@H]6CC[C@@H]5[C@@H]6N)cc(F)c4n3C3CC3)cc3ccc1nc32 [Example 646, (2~{R},5~{R},7~{R})-14-[5-[(1~{R},4~{R},7~{R})-7-amino-2-azabicyclo [2.2.1]heptane-2-carbonyl]-1-cyclopropyl-7-fluoro-benzimidazol-2-yl]-11,11-difluoro-2-methyl-3,13,19-triazatetracyclo [11.5.2.0^{5,7}.0^{16,20}] icosa-1(19),14,16(20), 17-tetraen-4-one]",22 nM
3,"COc1cc(C(=O)N[C@@H]2CC[C@H](C)NC2)cc2nc(-c3cc4ccc5nc4n3CCCCCCC3(CC3)C(=O)N[C@@H]5C)n(C)c12 [Example 72, 7-methoxy-1-methyl-2-[(11~{R})-11-methyl-9-oxo-spiro[1,10,19-triazatricyclo[10.5.2.0^{15,18}]nonadeca-12(19),13,15(18),16-tetraene-8,1′-cyclopropane]-17-yl]-~{N}-[(3~{R},6~{S})-6-methyl-3-piperidyl]benzimidazole-5-carboxamide]",308 nM
4,"C[C@H]1NC(=O)[C@H]2[C@H](CCCCCn3c(-c4nc5cc(C(=O)N[C@H]6CNCC[C@@H]6F)c(F)cc5n4C)cc4ccc1nc43)C2(F)F [Example 383, 2-[(2˜{R},5˜{R},7˜{S})-6,6-difluoro-2-methyl-4-oxo-3,13,19-triazatetracyclo[11.5.2.0^{5,7}.0^{16,20}]icosa-1(19),14,16(20),17-tetraen-14-yl]-6-fluoro-˜{N}-[(3˜{S},4˜{S})-4-fluoro-3-piperidyl]-1-methyl-benzimidazole-5-carboxamide]",28 nM
5,"CCc1c(-c2cc3ccc4nc3n2CCCCCCC(C)(C)C(=O)N[C@@H]4C)nn2cc(C(=O)N3CCC[C@@H](N)C3)ccc12 [Example 237, (11~{R})-17-[6-[(3~{R})-3-aminopiperidine-1-carbonyl]-3-ethyl-pyrazolo[1,5-a]pyridin-2-yl]-8,8,11-trimethyl-1,10,19-triazatricyclo[10.5.2.0^{15,18}]nonadeca-12(19),13,15(18),16-tetraen-9-one]",62 nM
6,COc1cc(C(=O)N2CCC[C@@H](N)C2)cc2nc(-c3cc4ccc5nc4n3CCCCCCCCS(=O)(=O)N5C)n(C)c12 [Example 937],187 nM
